We go through 5 compounds from US20190083407A1, “CRYSTALLIZATION METHOD AND BIOAVAILABILITY” (priority 2015, published 2019).

Where two headings read alike, the source gives them in different places.

The nature of series [1]: Rat PK study: plasma concentrations of zoledronic acid from pure zoledronic acid and complexes delivered IV, oral gavage and ID. Format: in vivo, Sprague-Dawley Rats. As for the experimental part:
These studies were conducted on rats and dogs as they are suitable animal models for zoledronic acid. This can be attributed to the fact that both animals have historically been used in the safety evaluation and PK screening studies and are recommended by appropriate regulatory agencies. […] Pure zoledronic acid and zoledronic acid complexes prepared by the methods in this invention were delivered to the rats and dogs through IV or oral routes. Additional tests included ID administration in rats and administration of enteric coated capsules in dogs. All compounds delivered were well tolerated by the animals with no adverse events or physical abnormalities noticed. […] USA. Some animals have surgical catheters (jugular vein and intraduodenum) were implanted to the animals prior to the studies. […] Surgical catheters (jugular vein) were implanted prior to the studies. […] Routes of Rat Dosing: Zoledronic acid and its complex formulations were administered through IV, oral and ID. […] The dose of each rat was calculated on a per rat basis (not on an average weight of all the rats in the lot). • ii. Oral gavage administration: solid suspensions were administered. The dose of each rat was calculated on a per rat basis (not on an average weight of all the rats in the lot). […] Duodenal cannula administration: solid suspensions were administered. The dose of each rat was calculated on a per rat basis (not on an average weight of all the rats in the lot). […] Groups: Two major groups of animals were selected for the study. • Group 1 consists of rat studies. […] Group I (IV Administration): Group Members, Designated IV Doses are Listed Below: [table] Group II (oral gavage): Group designations and oral doses are listed below: […] Group III (ID Administration): Group Designations and Oral Doses are Listed Below: [table] Rat blood sample collection, handling and analysis: […] Samples were thawed on the day of analysis and the amount of zoledronic acid in the samples was quantified by analyzed by LC/MS/MS method. Rat study: […]

Series [2] can be described thus: Aqueous solubility at room temperature. The conditions noted are these: for Aqueous solubility, mMol/L (complex): as complex.
For series [3] the following is noted: 72 hr dog study; cited from earlier work.
The conditions of series [4]: FDA Summary Basis of Approval; cited from earlier work.
For series [5] the following is noted: cited from earlier work; for Mortality: solutions in capsules.

With “Zoledronic, nicotinamide, and water complex”, the “Average plasma concentration of 3 rats” value is given as 0.00 ng/mL in series [1] (ID 5 mg/kg zoledronic acid equivalent, PEG 400, 8 hour); 0.00 ng/mL in series [1] (ID 5 mg/kg zoledronic acid equivalent, PEG 400, 24 hour); 0.00 ng/mL in series [1] (PO 5 mg/kg zoledronic acid equivalent, PEG 400, 24 hour).

As for `NCCCCC(N)C(=O)O.O.O=P(O)(O)C(O)(Cn1ccnc1)P(=O)(O)O` [ZA: DL-Lysine monohydrate], in series [2], the “Aqueous solubility, Conc.” value came to 13.9 mg/mL and the “Aqueous solubility, mMol/L (complex)” value turned out to be 31.86 mmol/L.

In general, AUC refers to the area under the concentration-time curve, a measure of exposure. Consider `O=P([O-])(O)C(O)(Cn1ccnc1)P(=O)([O-])O.[Na+].[Na+]` [disodium zoledronate salt], for which the AUC in series [3] was 4073 ng·h/mL.

On to `NCCCCC(N)C(=O)O.O.O.O=P(O)(O)C(O)(Cn1ccnc1)P(=O)(O)O` [ZA: L-Lysine dihydrate], for which, in series [2], the “Aqueous solubility, Conc.” value stood at 8.22 mg/mL and the “Aqueous solubility, mMol/L (complex)” value is 18.09 mmol/L.

Consider `O=P(O)(O)C(O)(Cn1ccnc1)P(=O)(O)O` [Zoledronic acid, (1-hydroxy-2-imidazol-1-yl-1-phosphono-ethyl)phosphonic acid], for which the Oral bioavailability entry in series [4] is listed as “less than 1%”. The AUC in series [3] is 2217 ng·h/mL. The “Mortality (dogs)” value is “⅓” in series [5] (10 mg/kg administered directly to the stomach) and 3/3 in series [5] (25 mg/kg, same formulation). The “AUC 0-24 hr” value in series [5] (dogs, 10 mg/kg administered directly to the stomach) is 1254 ng·h/mL. The “AUC 0-24” value in series [5] (dogs, 25 mg/kg, same formulation) is 7319 ng·h/mL. Further, the Mortality in series [5] (dogs, 10 mg/kg/day, one formulation) is 30%; in series [5] (dogs, another formulation, 25 mg/Kg), 100%.
